# Patent US20260216170A1, “TETRAHYDROISOQUINOLINE HETEROBIFUNCTIONAL BCL-XL DEGRADERS” (Treeline Biosciences, Inc., priority 2023, published 2026)
# Target: T1, Human BCL-XL protein (N-terminal HiBiT tagged BCL-XL expressed in HT1080 cells) (Homo sapiens, UniProt Q07817)
# T1 construct: expressed in transfected cells; host or cells: HT-1080 (ATCC CCL-121), stably transduced with lentivirus pLV-UBC-N-HiBiT-BCL-XL-PGK-puro and selected with puromycin
# Assay: HiBiT Based Degradation Assay
# Type: cell-based
# Settings: 24 hours incubation; for DC50: BCL-XL degradation, HT1080 cells expressing N-HiBiT-BCL-XL, normalized with DMSO control, geometric mean for multiple data points, read-out: EC50 (24 h); for Ymin (24 h): bottom of BCL-XL degradation curve (remaining HiBiT-BCL-XL signal vs DMSO control), HT1080 cells
# Procedure, shortened: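 BCL-XL degradation was read as Nano-Glo HiBiT lytic luminescence relative to DMSO after a 24 h compound treatment of HT1080 cells carrying stably integrated N-HiBiT-BCL-XL. EC50 values come from four-parameter logistic curves, with the hook-curve minimum fixed as bottom, and are geometric means where tested repeatedly.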
# T1 sequence (Q07817 whole entry): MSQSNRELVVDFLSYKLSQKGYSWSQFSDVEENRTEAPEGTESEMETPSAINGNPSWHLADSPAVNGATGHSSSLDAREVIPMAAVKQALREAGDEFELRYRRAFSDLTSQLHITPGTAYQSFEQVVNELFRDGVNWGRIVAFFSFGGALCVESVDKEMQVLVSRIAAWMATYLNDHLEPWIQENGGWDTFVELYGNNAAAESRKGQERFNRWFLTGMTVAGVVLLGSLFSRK
SMILES,DC50,Ymin (24 h)
"Cc1c(OCCC[C@@H]2CCN(CC(=O)Nc3ccc4c(C5CCC(=O)NC5=O)nn(C)c4c3)[C@H](C)C2)cccc1-c1ccc(N2CCc3ccnc(C(=O)Nc4nc5ccccc5s4)c3C2)nc1C(=O)O (stereo partly drawn) [Compound 216d, 6-(8-(benzo[d]thiazol-2-ylcarbamoyl)-3,4-dihydro-2,7-naphthyridin-2(1H)-yl)-3-(3-(3-((2R,4R)-1-(2-((3-(2,6-dioxopiperidin-3-yl)-1-methyl-1H-indazol-6-yl)amino)-2-oxoethyl)-2-methylpiperidin-4-yl)propoxy)-2-methylphenyl)picolinic acid]",10 to 100 nM,B (30% ≤ Ymin < 50%)
"Cc1c(OC[C@@H]2C[C@H]2CC2CCN(CC(=O)Nc3ccc4c(C5CCC(=O)NC5=O)nn(C)c4c3)CC2)cccc1-c1ccc(N2CCc3cccc(C(=O)Nc4nc5ccccc5s4)c3C2)nc1C(=O)O (single isomer, unassigned) [Compound 1004b]",10 to 100 nM,B (30% ≤ Ymin < 50%)
Cc1c(OCCCCC2CCN(Cc3nc4cc(C5CCC(=O)NC5=O)ccc4n3C)CC2)cccc1-c1ccc(N2CCc3cccc(C(=O)Nc4nc5ccccc5s4)c3C2)nc1C(=O)O (centres unmarked) [Compound 2002],10 to 100 nM,C (50% ≤ Ymin < 70%)
Cn1nc(C2CCC(=O)NC2=O)c2ccc(NC(=O)CN3CCC4(CC3)CC(Oc3ccc(-c5ccc(N6CCc7ccnc(C(=O)Nc8nc9ccccc9s8)c7C6)nc5C(=O)O)c(C(F)(F)F)c3)C4)nc21 (centres unmarked) [Compound 206],10 to 100 nM,B (30% ≤ Ymin < 50%)
"Cc1c(OC[C@H]2C[C@H]2C2CCN(CC(=O)Nc3ccc4c(C5CCC(=O)NC5=O)nn(C)c4c3)CC2)cccc1-c1ccc(N2CCc3cccc(C(=O)Nc4nc5ccccc5s4)c3C2)nc1C(=O)O (single isomer, unassigned) [Compound 1001c]",10 to 100 nM,B (30% ≤ Ymin < 50%)
"COc1c(NC(=O)CN2CCC(CCCOc3cccc(-c4ccc(N5CCc6ccnc(C(=O)Nc7nc8ccccc8s7)c6C5)nc4C(=O)O)c3C(F)(F)F)CC2)ccc2c(C3CCC(=O)NC3=O)nn(C)c12 (centres unmarked) [Compound 180, 6-[8-(1,3-benzothiazol-2-ylcarbamoyl)-3,4-dihydro-1H-2,7-naphthyridin-2-yl]-3-[3-[3-[1-[2-[[3-(2,6-dioxo-3-piperidyl)-7-methoxy-1-methyl-indazol-6-yl]amino]-2-oxo-ethyl]-4-piperidyl]propoxy]-2-(trifluoromethyl)phenyl]pyridine-2-carboxylic acid]",10 to 100 nM,B (30% ≤ Ymin < 50%)
Cc1c(OCCC[C@H]2[C@@H]3C[C@H]2CN(CC(=O)Nc2ccc4c(C5CCC(=O)NC5=O)nn(C)c4c2)C3)cccc1-c1ccc(N2CCc3cccc(C(=O)Nc4nc5ccccc5s4)c3C2)nc1C(=O)O (some centres unmarked) [Compound 176a],10 to 100 nM,C (50% ≤ Ymin < 70%)
"COc1c(NC(=O)CN2CCC(CCCOc3ccc(-c4ccc(N5CCc6cccc(C(=O)Nc7nc8ccccc8s7)c6C5)nc4C(=O)O)c(C)c3)CC2)ccc2c(C3CCC(=O)NC3=O)nn(C)c12 (centres unmarked) [Compound 105, 6-[8-(1,3-benzothiazol-2-ylcarbamoyl)-3,4-dihydro-1H-isoquinolin-2-yl]-3-[4-[3-[1-[2-[[3-(2,6-dioxo-3-piperidyl)-7-methoxy-1-methyl-indazol-6-yl]amino]-2-oxo-ethyl]-4-piperidyl]propoxy]-2-methyl-phenyl]pyridine-2-carboxylic acid]",10 to 100 nM,A (Ymin < 30%)
Cc1c(OCC2CC3(CCN(CC(=O)Nc4cc5c(cc4C(F)(F)F)c(C4CCC(=O)NC4=O)nn5C)CC3)C2)cccc1-c1ccc(N2CCc3cccc(C(=O)Nc4nc5ccccc5s4)c3C2)nc1C(=O)O (centres unmarked) [Compound 139],1000 to 10000 nM,C (50% ≤ Ymin < 70%)

# Now from value to molecule:
DC50,Ymin (24 h),SMILES
< 10 nM,A (Ymin < 30%),Cc1cc(NCCCC2CCN(CC(=O)Nc3ccc4c(C5CCC(=O)NC5=O)nn(C)c4c3)CC2)ccc1-c1ccc(N2CCc3cccc(C(=O)Nc4nc5ccccc5s4)c3C2)nc1C(=O)O (centres unmarked) [Compound 218]
< 10 nM,A (Ymin < 30%),Cn1nc(C2CCC(=O)NC2=O)c2ccc(NC(=O)CN3CCC(CCCOc4ccc(-c5ccc(N6CCc7cccc(C(=O)Nc8nc9ccccc9s8)c7C6)nc5C(=O)O)c(F)c4)CC3)cc21 (centres unmarked) [Compound 199]
< 10 nM,A (Ymin < 30%),"Cc1cc(OC[C@H]2C[C@@H]2C2CCN(CC(=O)Nc3ccc4c(C5CCC(=O)NC5=O)nn(C)c4c3)CC2)ccc1-c1ccc(N2CCc3cccc(C(=O)Nc4nc5ccccc5s4)c3C2)nc1C(=O)O (relative stereo) [Compound 1003a, 6-(8-(benzo[d]thiazol-2-ylcarbamoyl)-3,4-dihydroisoquinolin-2(1H)-yl)-3-(4-(((1S,2R)-2-(1-(2-((3-(2,6-dioxopiperidin-3-yl)-1-methyl-1H-indazol-6-yl)amino)-2-oxoethyl)piperidin-4-yl)cyclopropyl)methoxy)-2-methylphenyl)picolinic acid]"
< 10 nM,B (30% ≤ Ymin < 50%),"Cn1nc(C2CCC(=O)NC2=O)c2ccc(NC(=O)CN3CCC4(CC3)CC(Oc3cccc(-c5ccc(N6CCc7cccc(C(=O)Nc8nc9ccccc9s8)c7C6)nc5C(=O)O)c3C(F)(F)F)C4)c(F)c21 (centres unmarked) [Compound 188, 6-(8-(benzo[d]thiazol-2-ylcarbamoyl)-3,4-dihydroisoquinolin-2(1H)-yl)-3-(3-((7-(2-((3-(2,6-dioxopiperidin-3-yl)-7-fluoro-1-methyl-1H-indazol-6-yl)amino)-2-oxoethyl)-7-azaspiro[3.5]nonan-2-yl)oxy)-2-(trifluoromethyl)phenyl)picolinic acid]"
< 10 nM,A (Ymin < 30%),Cc1cc(OC2CC3(CCN(CC(=O)Nc4ccc5c(C6CCC(=O)NC6=O)nn(C)c5n4)CC3)C2)ccc1-c1ccc(N2CCc3ccnc(C(=O)Nc4nc5ccccc5s4)c3C2)nc1C(=O)O (centres unmarked) [Compound 213]
< 10 nM,A (Ymin < 30%),Cc1cc(OCCC[C@@H]2CCN(CC(=O)Nc3ccc4c(C5CCC(=O)NC5=O)nn(C)c4c3)[C@H](C)C2)ccc1-c1ccc(N2CCc3ccnc(C(=O)Nc4nc5ccccc5s4)c3C2)nc1C(=O)O (some centres unmarked) [Compound 219d]
< 10 nM,B (30% ≤ Ymin < 50%),"COc1c(NC(=O)CN2CCC3(CC2)CC(Oc2cccc(-c4ccc(N5CCc6ccnc(C(=O)Nc7nc8ccccc8s7)c6C5)nc4C(=O)O)c2C)C3)ccc2c(C3CCC(=O)NC3=O)nn(C)c12 (centres unmarked) [Compound 184, 6-[8-(1,3-benzothiazol-2-ylcarbamoyl)-3,4-dihydro-1H-2,7-naphthyridin-2-yl]-3-[3-[[7-[2-[[3-(2,6-dioxo-3-piperidyl)-7-methoxy-1-methyl-indazol-6-yl]amino]-2-oxo-ethyl]-7-azaspiro[3.5]nonan-2-yl]oxy]-2-methyl-phenyl]pyridine-2-carboxylic acid]"
< 10 nM,B (30% ≤ Ymin < 50%),Cc1cc(OC2CC3(CCN(CC(=O)Nc4ccc5c(C6CCC(=O)NC6=O)nn(C)c5c4F)CC3)C2)ccc1-c1ccc(N2CCc3cccc(C(=O)Nc4nc5ccccc5s4)c3C2)nc1C(=O)O (centres unmarked) [Compound 191]
< 10 nM,A (Ymin < 30%),Cc1cc(OCCC[C@@H]2CCN(CC(=O)Nc3ccc4c(C5CCC(=O)NC5=O)nn(C)c4c3)[C@@H](C)C2)ccc1-c1ccc(N2CCc3ccnc(C(=O)Nc4nc5ccccc5s4)c3C2)nc1C(=O)O (some centres unmarked) [Compound 219a]
< 10 nM,B (30% ≤ Ymin < 50%),"Cc1c(OC2CC3(CCN(CC(=O)Nc4ccc5c(C6CCC(=O)NC6=O)nn(C)c5n4)CC3)C2)cccc1-c1ccc(N2CCc3ccnc(C(=O)Nc4nc5ccccc5s4)c3C2)nc1C(=O)O (centres unmarked) [Compound 207, 6-[8-(1,3-benzothiazol-2-ylcarbamoyl)-3,4-dihydro-1H-2,7-naphthyridin-2-yl]-3-[3-[[7-[2-[[3-(2,6-dioxo-3-piperidyl)-1-methyl-pyrazolo[3,4-b]pyridin-6-yl]amino]-2-oxo-ethyl]-7-azaspiro[3.5]nonan-2-yl]oxy]-2-methyl-phenyl]pyridine-2-carboxylic acid]"
< 10 nM,B (30% ≤ Ymin < 50%),"Cc1c(OC2CC3(CCN(CC(=O)Nc4ccc5c(C6CCC(=O)NC6=O)nn(C)c5n4)CC3)C2)cccc1-c1ccc(N2CCc3cccc(C(=O)Nc4nc5ccccc5s4)c3C2)nc1C(=O)O (centres unmarked) [Compound 194, 6-(8-(benzo[d]thiazol-2-ylcarbamoyl)-3,4-dihydroisoquinolin-2(1H)-yl)-3-(3-((7-(2-((3-(2,6-dioxopiperidin-3-yl)-1-methyl-1H-pyrazolo[3,4-b]pyridin-6-yl)amino)-2-oxoethyl)-7-azaspiro[3.5]nonan-2-yl)oxy)-2-methylphenyl)picolinic acid]"
< 10 nM,A (Ymin < 30%),"Cc1cc(OC[C@H]2C[C@H]2C2CCN(CC(=O)Nc3ccc4c(C5CCC(=O)NC5=O)nn(C)c4c3)CC2)ccc1-c1ccc(N2CCc3cccc(C(=O)Nc4nc5ccccc5s4)c3C2)nc1C(=O)O (single isomer, unassigned) [Compound 1003c]"
< 10 nM,A (Ymin < 30%),C[C@@H]1C[C@H](CCCOc2ccc(-c3ccc(N4CCc5cccc(C(=O)Nc6nc7ccccc7s6)c5C4)nc3C(=O)O)c(C(F)(F)F)c2)CCN1CC(=O)Nc1ccc2c(C3CCC(=O)NC3=O)nn(C)c2c1 (some centres unmarked) [Compound 209c]
